Results published in publication PMC10005056, “Design and Synthesis of New Acyl Urea Analogs as Potential σ1R Ligands” (Molecules, 2023).

tested on: not given; assay: not given; conditions: not given

Row | Compound | melting point [°C]
1 | O=C(NC(=O)N1CCN(c2ccncc2)CC1)c1ccccc1 [Compound 6, N-Benzoyl-4-(pyridin-4-yl)piperazine-1-carboxamide] | 161 to 163
2 | O=C(NC(=O)N1CCC(O)CC1)c1ccccc1 [Compound 7] | 170 to 172
3 | Cc1ccc(N2CCN(C(=O)NC(=O)c3ccccc3)CC2)cc1 [Compound 8, N-Benzoyl-4-(p-tolyl)piperazine-1-carboxamide] | 158 to 160
4 | CC(C)(C)OC(=O)N1CCC(NC(=O)NC(=O)c2ccccc2)CC1 [Compound 9, Tert-butyl 4-(3-benzoylureido)piperidine-1-carboxylate] | 164 to 166
5 | Cc1c(C)c2c(c(C)c1O)CCC(C)(C(=O)NC(=O)NC(=O)c1ccccc1)O2 (stereo not shown) [Compound 11, N-(Benzoylcarbamoyl)-6-hydroxy-2,5,7,8-tetramethylchromane-2-carboxamide] | 155 to 157
6 | Cc1cc(C)nc(NC(=O)NC(=O)c2ccccc2)n1 [Compound 13, N-((4,6-Dimethylpyrimidin-2-yl)carbamoyl)benzamide] | 183 to 185
7 | O=C(NC(=O)c1ccccc1)Nc1cnc2ccccc2c1 [Compound 14, N-(Quinolin-3-ylcarbamoyl)benzamide] | 233 to 236
8 | O=C(NC(=O)c1ccccc1)Nc1cc2ccccc2cn1 [Compound 15, N-(Isoquinolin-3-ylcarbamoyl)benzamide] | 237 to 238
9 | O=C(NC(=S)Nc1cc2ccccc2cn1)c1ccccc1 [Compound 16, N-(Isoquinolin-3-ylcarbamothioyl)benzamide] | 162 to 165

Results, then the compound that gave them:

Row | melting point [°C] | Compound
10 | 220 to 223 | O=C(NC(=O)c1ccccc1)Nc1ccc2[nH]ccc2c1 [Compound 2]
11 | 180 to 182 | O=C(NC(=O)c1ccccc1)NC(=S)c1ccccn1 [Compound 3, N-((Pyridine-2-carbonothioyl)carbamoyl)benzamide]
12 | 209 to 211 | Cc1cc2cc(NC(=O)NC(=O)c3ccccc3)ccc2[nH]1 [Compound 4, N-((2-Methyl-1H-indol-5-yl)carbamoyl)benzamide]
13 | 145 to 147 | O=C(NC(=O)N1CCN(c2ncccn2)CC1)c1ccccc1 [Compound 5, N-Benzoyl-4-(pyrimidin-2-yl)piperazine-1-carboxamide]
14 | 180 to 182 | O=C(NC(=O)c1ccccc1)Nc1nc2ccccc2o1 [Compound 10, N-(Benzo[d]oxazol-2-ylcarbamoyl)benzamide]
15 | 176 to 177 | COc1cc(C(=S)NC(=O)NC(=O)c2ccccc2)ccc1O [Compound 12, N-((4-Hydroxy-3-methoxyphenylcarbonothioyl)carbamoyl) benzamide]

biological target: σ1R (Homo sapiens, UniProt Q99720); assay: In vitro σ1R binding assay (radioligand displacement, NIMH PDSP); conditions: read-out: In Vitro σ1R Affinity (Ki)
From the text: Online Molinspiration and Osiris property explorer were used to calculate/predict drug-like molecular properties for the target compounds. These studies involved retrieving the σ1R crystal structure (5HK1) with embedded ligand (PD144418), preparation (e.g., H2O and ligand removal), and docking the target molecules via the PyRx and AutoDock Vina suite. […] Synthetically, a variety of approaches for obtaining acyl ureas were reviewed and the most feasible conditions were attempted with limited success—our goal was to obtain our compounds using the shortest and most cost-effective approach. […] We therefore slightly modified Stokes’ conditions by preparing the N-(phenoxycabonyl)benzamide intermediate from phenol and benzoyl isocynate. Coupling the intermediate with amines or amides or thioamides via simple nucleophilic displacement afforded our series of N-acyl ureas plus N-acyl thioureas (Table 1) in good yields (>64%). To confirm our pharmacological assumptions regarding these molecules behaving like PD144418, the compounds were sent to the National Institute of Mental Health’s Psychoactive Drug Screening Program and evaluated in radioligand displacement assays to determine their in vitro σ1R affinities or Ki values.
Computational (kcal/mol) versus in vitro (μM, from the National Institute of Mental Health Psychoactive Drug Screening Program or NIMH-PDSP [https://pdsp.unc.edu/pdspweb/ (accessed 28 February 2023)] σ1R binding affinity data are illustrated in Table 4.
Sigma-1 binding affinity experiments (Ki determinations) were conducted at the National Institute of Mental Health’s Psychoactive Drug Screening Program (NIMH PDSP). Sigma-1 receptor binding assay protocol details (radioligand displacement conditions, etc.) are available at https://pdsp.unc.edu/pdspweb/content/PDSP%20Protocols%20II%202013-03-28.pdf (accessed 28 February 2023).

σ1R, sequence (Q99720 whole entry, species assumed): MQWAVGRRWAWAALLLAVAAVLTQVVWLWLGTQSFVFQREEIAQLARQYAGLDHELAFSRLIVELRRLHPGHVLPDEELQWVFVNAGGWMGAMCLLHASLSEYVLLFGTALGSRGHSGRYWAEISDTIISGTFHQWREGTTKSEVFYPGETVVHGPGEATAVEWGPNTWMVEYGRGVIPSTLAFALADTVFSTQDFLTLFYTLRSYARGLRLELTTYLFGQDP

Row | Compound | Ki [µM]
16 | Cc1cc(NC(=O)NC(=O)c2ccccc2)no1 [Compound 1, N-((5-Methylisoxazol-3-yl)carbamoyl)benzamide] | > 10
17 | O=C(NC(=O)N1CCN(c2ccncc2)CC1)c1ccccc1 [Compound 6, N-Benzoyl-4-(pyridin-4-yl)piperazine-1-carboxamide] | > 10
18 | O=C(NC(=O)N1CCC(O)CC1)c1ccccc1 [Compound 7] | > 10
19 | Cc1ccc(N2CCN(C(=O)NC(=O)c3ccccc3)CC2)cc1 [Compound 8, N-Benzoyl-4-(p-tolyl)piperazine-1-carboxamide] | > 10
20 | CC(C)(C)OC(=O)N1CCC(NC(=O)NC(=O)c2ccccc2)CC1 [Compound 9, Tert-butyl 4-(3-benzoylureido)piperidine-1-carboxylate] | > 10
21 | Cc1c(C)c2c(c(C)c1O)CCC(C)(C(=O)NC(=O)NC(=O)c1ccccc1)O2 (stereo not shown) [Compound 11, N-(Benzoylcarbamoyl)-6-hydroxy-2,5,7,8-tetramethylchromane-2-carboxamide] | > 10
22 | Cc1cc(C)nc(NC(=O)NC(=O)c2ccccc2)n1 [Compound 13, N-((4,6-Dimethylpyrimidin-2-yl)carbamoyl)benzamide] | > 10
23 | O=C(NC(=O)c1ccccc1)Nc1cnc2ccccc2c1 [Compound 14, N-(Quinolin-3-ylcarbamoyl)benzamide] | > 10
24 | O=C(NC(=O)c1ccccc1)Nc1cc2ccccc2cn1 [Compound 15, N-(Isoquinolin-3-ylcarbamoyl)benzamide] | > 10
25 | O=C(NC(=S)Nc1cc2ccccc2cn1)c1ccccc1 [Compound 16, N-(Isoquinolin-3-ylcarbamothioyl)benzamide] | > 10

The next lines start with the values.

Row | Ki [µM] | Compound
26 | > 10 | O=C(NC(=O)c1ccccc1)Nc1ccc2[nH]ccc2c1 [Compound 2]
27 | > 10 | O=C(NC(=O)c1ccccc1)NC(=S)c1ccccn1 [Compound 3, N-((Pyridine-2-carbonothioyl)carbamoyl)benzamide]
28 | > 10 | Cc1cc2cc(NC(=O)NC(=O)c3ccccc3)ccc2[nH]1 [Compound 4, N-((2-Methyl-1H-indol-5-yl)carbamoyl)benzamide]
29 | > 10 | O=C(NC(=O)N1CCN(c2ncccn2)CC1)c1ccccc1 [Compound 5, N-Benzoyl-4-(pyrimidin-2-yl)piperazine-1-carboxamide]
30 | 2.18 | O=C(NC(=O)c1ccccc1)Nc1nc2ccccc2o1 [Compound 10, N-(Benzo[d]oxazol-2-ylcarbamoyl)benzamide]
31 | 9.54 | COc1cc(C(=S)NC(=O)NC(=O)c2ccccc2)ccc1O [Compound 12, N-((4-Hydroxy-3-methoxyphenylcarbonothioyl)carbamoyl) benzamide]
